Biological target: T1, IgE-Tb / sFcεR1α-AF488 (WT soluble IgE receptor FcεR1α) (Homo sapiens, UniProt P01854, N146Q/N252Q, form not given)
T1 construct: fused on or other part: LanthaScreen amine-reactive terbium chelate, chemically conjugated (about 4 Tb per IgE-Fc); a label, not a fusion
Assay: In vitro FRET assay of IgE-Tb binding to sFcεR1α-AF488 (WT), 18 hours incubation (examples 17-35, 48-52 and 63)
Settings: 0.75 nM IgE-Tb, 0.9 nM sFcεR1α-AF488; 18 hours at room temperature; read-out: FRET IC50 range
Protocol: 86 nmoles of IgE-Fc(N265Q, N371Q) (Young et al., 1995) at 172 μM in 100 mM NaHCO3, pH 9.5 was added to 1 mg of LanthaScreen™ Amine Reactive Tb Chelate (ThermoFisher catalogue number PV3583) and incubated for 16 hours at 20° C. The material was then buffer exchanged into Phosphate Buffered Saline (being, 137 mM NaCl, 2.7 mM KCl, 10 mM Na2HPO4, 1.8 mM K2HPO4, pH 7.4) and the material quantified and the degree of Tb conjugation determined by measuring the absorption at 280 nm and 343 nm.
To a solution of 1.32 μmoles WT FcεR1α, at 377 μM, in 100 mM NaOAc pH 5.5, was slowly added 50 mM sodium periodate (70 μL) in 100 mM NaOAc, pH 5.5, with gentle mixing, to give a final concentration of 1 mM. […]
175 nmoles of protein was added to 1 mg of Alexa Fluor™ 488 hydrazide (Invitrogen) and incubated for 18 hours at 22° C. with gentle mixing. […] The material was quantified, and the degree of Alexa Fluor™ 488 conjugation determined by measuring the absorption at 280 nm and 497 nm. […]
The aim was to measure binding of IgE-Tb to receptor, and the inhibition thereof by compounds, using an in vitro Fluorescence Resonance Energy Transfer (FRET) Assay. […]
Measurement of FRET for each well was carried out by exciting at 337 nm and measuring emission at 490/520 nm using a PHERAstar FSX plate reader (BMG Labtech). FRET ratio was calculated as follows: […]

T1 sequence (P01854 whole entry C105A/N146Q/N252Q, form open, the tested form may be a part): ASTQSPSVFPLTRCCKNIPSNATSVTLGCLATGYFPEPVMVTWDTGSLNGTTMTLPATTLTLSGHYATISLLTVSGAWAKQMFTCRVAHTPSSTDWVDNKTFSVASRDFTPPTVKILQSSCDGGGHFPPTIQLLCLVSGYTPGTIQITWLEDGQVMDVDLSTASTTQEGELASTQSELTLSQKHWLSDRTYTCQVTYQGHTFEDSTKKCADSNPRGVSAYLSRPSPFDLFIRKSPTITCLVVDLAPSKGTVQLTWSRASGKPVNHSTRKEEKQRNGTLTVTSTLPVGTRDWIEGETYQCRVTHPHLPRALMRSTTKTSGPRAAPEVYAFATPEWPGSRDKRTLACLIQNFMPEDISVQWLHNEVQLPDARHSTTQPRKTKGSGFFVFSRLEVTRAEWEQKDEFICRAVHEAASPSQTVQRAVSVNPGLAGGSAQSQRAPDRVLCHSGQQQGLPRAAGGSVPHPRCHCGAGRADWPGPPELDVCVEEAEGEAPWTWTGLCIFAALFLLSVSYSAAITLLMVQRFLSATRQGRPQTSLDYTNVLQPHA

Question: How did the IC50 turn out when `COc1ccc(CNC(=O)N[C@H]2C[C@H](Nc3cncc(OC)c3)c3c2cc(S(=O)(=O)NCC(C)C)c2cc(C4CC4)ncc32)cc1` (racemic) [Example 18, 1-[(4-methoxyphenyl)methyl]-3-[trans-(7R,9RS)-3-cyclopropyl-9-[(5-methoxypyridin-3-yl)amino]-5-(2-methylpropylsulfamoyl)-8,9-dihydro-7H-cyclopenta[h]isoquinolin-7-yl]urea] was run?
Answer: 1 to 10 nM
